Measured values from PubChem BioAssay AID651914 (NMMLSC, 2012).

Test system: AM2.2-GPR32 FAP cells, fluorogen binding, flow cytometry MCF
Assay: fluorogen binding to FAP-tagged GPR32, dose response, counter-screen for beta2AR agonist internalization project, AM2.2 cells, flow cytometry, powder set 5 (AID 651914)

Row | SMILES | EC50 [nM]
1 | Cc1cccc(C(=O)Nc2ccc(S(=O)(=O)N3CCCCC3C)cc2)c1 (stereo not drawn) | 2900
2 | CN(CC(=O)N1CCN(c2ccc(F)cc2)CC1)S(=O)(=O)c1ccc(Br)cc1 | 410
3 | CCC(=O)Nc1ccc(S(=O)(=O)N2CCCCC2CC)cc1 (stereo not drawn) | 7.5
